Data taken from ChEMBL document CHEMBL4052601, “Glycybridins A-K, Bioactive Phenolic Compounds from Glycyrrhiza glabra” (J Nat Prod, 2017).
Calls of active or inactive are those of the source. The rule behind the calls is not given here.

Assays:
Homo sapiens = experiment: Inhibition of LPS-induced NF-kappaB (unknown origin) transactivation expressed in human SW480 cells at 10 uM administered 1 hr after LPS stimulation measured after 6 hrs by luciferase reporter gene assay relative to control; type: cell-based
A549 [1] = experiment: Induction of apoptosis in human A549 cells assessed as late apoptotic cells at 20 uM after 8 hrs by Annexin V-FITC/propidium iodide staining-based flow cytometric analysis (reference value: 12.02%); type: functional
SW480 [2] = experiment: Antiproliferative activity against human SW480 cells after 24 hrs by MTS assay; type: functional, cell-based; details: SW480, 24 h
A549 [3] = experiment: Antitumor activity against human A549 cells xenografted in BALB/c nude mouse assessed as reduction in tumor volume at 10 mg/kg, ip administered as daily dose for 16 days relative to control; type: functional; details: 384 h
RAW264.7 [4] = experiment: Antiinflammatory activity against mouse RAW264.7 cells assessed as inhibition of LPS-induced nitric oxide production at 10 uM after 24 hrs by Griess assay relative to control; type: functional; details: RAW264.7, 24 h
A549 [5] = experiment: Induction of apoptosis in human A549 cells assessed as early apoptotic cells at 5 uM after 8 hrs by Annexin V-FITC/propidium iodide staining-based flow cytometric analysis (reference value: 1.64%); type: functional
A549 [6] = experiment: Antiproliferative activity against human A549 cells at 10 uM after 24 hrs by MTS assay relative to control; type: functional; details: A549, 24 h
A549 [7] = experiment: Induction of apoptosis in human A549 cells assessed as late apoptotic cells at 10 uM after 8 hrs by Annexin V-FITC/propidium iodide staining-based flow cytometric analysis (reference value: 12.02%); type: functional
MCF7 [8] = experiment: Antiproliferative activity against human MCF7 cells after 24 hrs by MTS assay; type: functional, cell-based; details: MCF7, 24 h
[9] = target: T1, Tyrosine-protein phosphatase non-receptor type 1 (Homo sapiens) (UniProt P18031); details: at 10 µM;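 also: recombinant enzyme assay with pNPP substrate, inhibition read after 30 min versus untreated control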
T1 sequence (whole entry): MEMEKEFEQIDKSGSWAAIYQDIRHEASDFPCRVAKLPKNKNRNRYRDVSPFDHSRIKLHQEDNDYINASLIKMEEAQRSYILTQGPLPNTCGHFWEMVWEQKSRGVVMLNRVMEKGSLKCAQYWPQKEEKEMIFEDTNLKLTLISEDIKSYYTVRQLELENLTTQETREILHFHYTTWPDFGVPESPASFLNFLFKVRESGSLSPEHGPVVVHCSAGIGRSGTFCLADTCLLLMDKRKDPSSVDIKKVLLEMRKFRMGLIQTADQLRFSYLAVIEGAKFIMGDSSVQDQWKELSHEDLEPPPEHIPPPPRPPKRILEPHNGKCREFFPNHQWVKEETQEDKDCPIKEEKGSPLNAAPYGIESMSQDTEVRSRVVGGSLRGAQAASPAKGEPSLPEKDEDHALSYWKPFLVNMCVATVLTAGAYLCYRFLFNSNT
Description: Inhibition of recombinant human PTP1B using pNPP as substrate at 10 uM after 30 mins relative to control

HepG2 [10] = experiment: Antiproliferative activity against human HepG2 cells after 24 hrs by MTS assay; type: functional, cell-based; details: HepG2, 24 h
MCF7 [11] = experiment: Antiproliferative activity against human MCF7 cells at 10 uM after 24 hrs by MTS assay relative to control; type: functional; details: MCF7, 24 h
HepG2 [12] = experiment: Antiproliferative activity against human HepG2 cells at 10 uM after 24 hrs by MTS assay relative to control; type: functional; details: HepG2, 24 h
SW480 [13] = experiment: Antiproliferative activity against human SW480 cells at 10 uM after 24 hrs by MTS assay relative to control; type: functional; details: SW480, 24 h
A549 [14] = experiment: Induction of apoptosis in human A549 cells assessed as late apoptotic cells at 2.5 uM after 8 hrs by Annexin V-FITC/propidium iodide staining-based flow cytometric analysis (reference value: 12.02%); type: functional
A549 [15] = experiment: Induction of apoptosis in human A549 cells assessed as late apoptotic cells at 5 uM after 8 hrs by Annexin V-FITC/propidium iodide staining-based flow cytometric analysis (reference value: 12.02%); type: functional
A549 [16] = experiment: Antiproliferative activity against human A549 cells after 24 hrs by MTS assay; type: functional, cell-based
A549 [17] = experiment: Induction of apoptosis in human A549 cells assessed as early apoptotic cells at 2.5 uM after 8 hrs by Annexin V-FITC/propidium iodide staining-based flow cytometric analysis (reference value: 1.64%); type: functional
Mus musculus [18] = experiment: Toxicity in BALB/c nude mouse xenografted with human A549 cells assessed as change in body weight at 10 mg/kg, ip administered as daily dose for 16 days relative to control; type: organism-based; details: in vivo, 384 h
A549 [19] = experiment: Induction of apoptosis in human A549 cells assessed as early apoptotic cells at 20 uM after 8 hrs by Annexin V-FITC/propidium iodide staining-based flow cytometric analysis (reference value: 1.64%); type: functional
A549 [20] = experiment: Induction of apoptosis in human A549 cells after 8 hrs by Annexin V-FITC/propidium iodide staining-based flow cytometric analysis; type: functional, cell-based
[21] = target: T2, Tyrosinase (Homo sapiens) (UniProt P14679); details: at 10 µM
T2 sequence (whole entry): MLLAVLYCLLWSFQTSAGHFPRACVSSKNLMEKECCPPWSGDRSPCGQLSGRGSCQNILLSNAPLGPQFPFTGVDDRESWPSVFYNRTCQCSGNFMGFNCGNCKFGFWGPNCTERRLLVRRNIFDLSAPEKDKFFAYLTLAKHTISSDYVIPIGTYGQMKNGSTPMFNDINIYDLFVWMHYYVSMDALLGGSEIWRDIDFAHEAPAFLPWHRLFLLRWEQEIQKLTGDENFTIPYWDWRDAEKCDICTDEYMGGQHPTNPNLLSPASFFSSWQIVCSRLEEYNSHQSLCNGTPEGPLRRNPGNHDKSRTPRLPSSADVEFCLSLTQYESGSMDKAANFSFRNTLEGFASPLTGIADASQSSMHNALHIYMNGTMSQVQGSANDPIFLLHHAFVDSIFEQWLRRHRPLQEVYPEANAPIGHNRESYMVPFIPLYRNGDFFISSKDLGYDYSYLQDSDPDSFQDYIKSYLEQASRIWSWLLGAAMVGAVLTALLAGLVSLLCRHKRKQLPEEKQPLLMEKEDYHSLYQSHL
Description: Inhibition of tyrosinase (unknown origin) using L-tyrosine as substrate at 10 uM preincubated for 15 mins followed by substrate addition relative to control

A549 [22] = experiment: Antitumor activity against human A549 cells xenografted in BALB/c nude mouse assessed as reduction in tumor mass at 10 mg/kg, ip administered as daily dose for 16 days relative to control; type: functional; details: 384 h
A549 [23] = experiment: Induction of apoptosis in human A549 cells assessed as early apoptotic cells at 10 uM after 8 hrs by Annexin V-FITC/propidium iodide staining-based flow cytometric analysis (reference value: 1.64%); type: functional
Mus musculus [24] = experiment: Toxicity in BALB/c nude mouse xenografted with human A549 cells at 10 mg/kg, ip administered as daily dose for 16 days relative to control; type: organism-based; details: in vivo, 384 h
RAW264.7 [25] = experiment: Antiinflammatory activity against mouse RAW264.7 cells assessed as inhibition of LPS-induced nitric oxide production after 24 hrs by Griess assay; type: functional, cell-based; details: RAW264.7, 24 h
Tyrosinase [26] = target: T3, Tyrosinase (Homo sapiens, UniProt P14679); experiment: Inhibition of tyrosinase (unknown origin) using L-tyrosine as substrate preincubated for 15 mins followed by substrate addition
T3 sequence (P14679 whole entry): T2 sequence (whole entry)

Tyrosinase [27] = target: T3, Tyrosinase; experiment: Inhibition of tyrosinase (unknown origin) using L-tyrosine as substrate preincubated for 5 mins followed by substrate addition
[28] = target: T4, Nuclear factor erythroid 2-related factor 2 (Homo sapiens) (UniProt Q16236); experiment: Activation of Nrf2 (unknown origin) expressed in human HepG2 cells after 6 hrs by ARE-driven luciferase reporter gene assay relative to control; type: cell-based
T4 sequence (whole entry): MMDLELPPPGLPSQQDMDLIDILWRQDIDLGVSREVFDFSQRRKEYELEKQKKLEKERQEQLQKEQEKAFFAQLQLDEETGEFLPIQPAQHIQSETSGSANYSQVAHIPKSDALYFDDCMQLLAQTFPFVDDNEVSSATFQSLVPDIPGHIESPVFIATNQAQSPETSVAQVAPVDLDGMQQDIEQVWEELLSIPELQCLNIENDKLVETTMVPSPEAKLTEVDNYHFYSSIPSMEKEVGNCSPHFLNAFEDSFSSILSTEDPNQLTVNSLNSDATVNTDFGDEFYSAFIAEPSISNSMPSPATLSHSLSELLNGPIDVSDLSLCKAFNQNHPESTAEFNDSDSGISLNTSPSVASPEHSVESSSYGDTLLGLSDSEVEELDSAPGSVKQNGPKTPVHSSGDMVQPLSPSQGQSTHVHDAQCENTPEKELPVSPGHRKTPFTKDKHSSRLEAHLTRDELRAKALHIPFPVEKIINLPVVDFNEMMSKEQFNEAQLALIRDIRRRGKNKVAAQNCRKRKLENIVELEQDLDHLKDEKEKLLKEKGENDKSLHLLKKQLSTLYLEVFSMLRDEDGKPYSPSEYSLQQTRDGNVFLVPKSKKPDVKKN

RAW264.7 [29] = experiment: Antiinflammatory activity against mouse RAW264.7 cells assessed as inhibition of LPS induced nitric oxide production at 20 uM […] followed by LPS challenge […] relative to control; type: functional
[30] = Inhibition of LPS-induced NF-kappaB (unknown origin) transactivation expressed in human SW480 cells administered 1 hr after LPS stimulation measured after 6 hrs by luciferase reporter gene assay; type: cell-based
Mus musculus [31] = experiment: Toxicity in BALB/c nude mouse xenografted with human A549 cells at 5 mg/kg, ip administered as daily dose for 16 days relative to control; type: organism-based; details: in vivo, 384 h
Mus musculus [32] = experiment: Toxicity in BALB/c nude mouse xenografted with human A549 cells assessed as change in body weight at 5 mg/kg, ip administered as daily dose for 16 days relative to control; type: organism-based; details: in vivo, 384 h
A549 [33] = experiment: Antitumor activity against human A549 cells xenografted in BALB/c nude mouse assessed as tumor growth inhibition at 5 mg/kg, ip administered as daily dose for 16 days; type: functional, organism-based

Row | SMILES | inhibition [9] | inhibition [21] | inhibition (Homo sapiens) | inhibition at 10 µM (RAW264.7 [4]) | inhibition at 10 µM (A549 [6]) | inhibition at 10 µM (MCF7 [11]) | inhibition at 10 µM (HepG2 [12]) | inhibition at 10 µM (SW480 [13]) | also measured
1 | CC(C)=CCc1cc2c(cc1O)OCC(c1ccc(O)c3c1OC(C)(C)C=C3)=C2 | 80.4% | 3.8% | 41.6% | 36% | 87.7% | 90.7% | 93.6% | 94.6% | Activity (A549 [1]): 72.21%; IC50 (SW480 [2]): 4.6 to 6.6 µM; inhibition in vivo at 10 mg/kg (A549 [3]): 38.9%; Activity (A549 [5]): 2.42%; Activity (A549 [7]): 32.67%; IC50 (MCF7 [8]): 4.6 to 6.6 µM; IC50 (HepG2 [10]): 4.6 to 6.6 µM; Activity (A549 [14]): 14.08%; Activity (A549 [15]): 17.07%; Activity (A549 [16]): Dose-dependent effect; IC50 (A549 [16]; A549, 24 h): 4.6 µM; Activity (A549 [17]): 3.03%; Activity (Mus musculus [18]): Non-Toxic; Activity (A549 [19]): 22.81%; Activity (A549 [20]): Dose-dependent effect; inhibition in vivo at 10 mg/kg (A549 [22]): 39.7%; Activity (A549 [23]): 16.04%; Activity (Mus musculus [24]): Non-Toxic
2 | CC1(C)C=Cc2c(ccc(-c3cc4ccc(O)cc4o3)c2O)O1 | 22.8% | 41.7% | 75.8% | 21.6% | 14.4% | 15.1% | 15.6% | 27.7% | IC50 [30]: 6.4 µM
3 | COc1cc([C@@H]2c3cc4c(cc3[C@@H](O[C@@H]3O[C@@H]5CO[C@@H](C)O[C@H]5[C@H](O)[C@H]3O)[C@H]3COC(=O)[C@H]23)OCO4)cc(OC)c1O [ETOPOSIDE] |  |  |  |  |  |  |  |  | Activity (Mus musculus [31]): Non-Toxic; Activity (Mus musculus [32]): Toxic; TGI (A549 [33]): Active

Second part, led by results:

Row | inhibition [9] | inhibition [21] | SMILES | inhibition (Homo sapiens) | inhibition at 10 µM (RAW264.7 [4]) | inhibition at 10 µM (A549 [6]) | inhibition at 10 µM (MCF7 [11]) | inhibition at 10 µM (HepG2 [12]) | inhibition at 10 µM (SW480 [13]) | also measured
4 | 7.1% | 76.6% | CC1(C)C=Cc2c(O)ccc(C3=Cc4ccc(O)cc4OC3)c2O1 [GLABRENE] | 41.7% | 57.5% | 0% | 17.6% | 25.9% | 30.7% | IC50 (RAW264.7 [25]): 9.5 µM; IC50 (Tyrosinase [26]): 7.5 µM
5 | 3.6% | 99.7% | CC1(C)C=Cc2c(ccc3c2OC[C@@H](c2ccc(O)cc2O)C3)O1 [GLABRIDIN] | 0% | 19.8% | 12.7% | 8.8% | 12.1% | 19.8% | IC50 (Tyrosinase [27]): 0.09 µM
6 | 14.5% | 10.6% | C=CC(C)(C)c1cc(/C=C/C(=O)c2ccc(O)cc2)c(OC)cc1O [LICOAGROCHACONE A] | 57.2% | 14.2% | 17.8% | 55.9% | 57.9% | 13.6% | Activity [28]: Dose-dependent effect; fold change (FC) (RAW264.7 [29]): 0.8
